{"source": "patent US20190147975A1", "about": "“SF3B1 SUPPRESSION AS A THERAPY FOR TUMORS HARBORING SF3B1 COPY LOSS” (DANA-FARBER CANCER INSTITUTE, INC., priority 2016, published 2019)", "molecules": {"B1": {"name": "TR-shSF3B1#3: doxycycline-inducible shRNA targeting SF3B1 in pLKO-Tet-puro, SEQ ID NO: 12/13 (nucleic acid)", "sense": "CCGGCAACTCCTTATGGTATCGAATCTCGAGATTCGATACCATAAGGAGTTGTTTTTG", "antisense": "AATTCAAAAACAACTCCTTATGGTATCGAATCTCGAGATTCGATACCATAAGGAGTTG"}}, "key": {"[1]": {"tested_on": "Hs578T, Cal51 cells", "test": "Drug sensitivity curves for splicing inhibitors in cells without and with SF3B1 suppression", "type": "cell-based, human", "from_the_text": "FIG. 26A is a series of graphs showing drug sensitivity curves for indicated splicing inhibitors (“NSC-95397”, “pladienolide B”, “spliceostatin A”) in cells (“Hs578T”, “Cal51”) without and with SF3B1 suppression."}, "[2]": {"tested_on": "SF3B1", "test": "Immunoblot of SF3B1 expression in Cal51 cells treated with DUB inhibitors", "type": "cell-based, human", "settings": "treated for 4 or 24 hours", "method": "FIG. 37 is an immunoblot showing SF3B1 expression in Cal51 cells treated with de-ubiquitinase (DUB) inhibitors (“PR-619”, “b-AP15”, “SJB3-019A”) for 4 or 24 hours. For all figures, *p<0.05, **p<0.01, ***p<0.001 unless otherwise indicated, and error bars represent +/−standard deviation.\nIn addition to SF3B1 RNA interference and SF3B inhibition, SF3B1 suppression can be exerted by deubiquitinase (DUB) inhibition. […] Therefore, DUB inhibitors may be capable of killing SF3B1^loss cells specifically.\nFor denaturing protein immunoblots, cells were washed in ice cold PBS and lysed in 1× RIPA buffer (10 mM Tris-Cl Ph 8.0, 1 mM EDTA, 1% Triton X-100, 0.1% SDS and 140 mM NaCl) supplemented with lx protease and phosphatase inhibitor cocktail (PI-290, Boston Bioproducts). Lysates were sonicated in a bioruptor (Diagenode) for 5 minutes (medium intensity) and cleared by centrifugation at 15000×g for 15 min at 4 C. Proteins were electrophoresed on polyacrylamide gradient gels (Life Technologies) and detected by chemiluminescence. For native western blotting, cells were washed in ice cold PBS and lysed in 1× sonication buffer (10% Glycerol, 25 mM HEPES pH 7.4, 10 mM MgCl2) supplemented with protease and phosphatase inhibitors. Coomassie blue native PAGE western blots were run according the manufacturer's instructions (Life Technologies)."}, "[3]": {"tested_on": "CRISPR^frameshift-loss xenografts", "test": "Xenograft growth with doxycycline-induced SF3B1 suppression", "type": "in vivo, nude mice", "settings": "doxycycline-induced shRNA, p=0.001", "from_the_text": "(§1) To test the effects of SF3B1 suppression in vivo, xenografts were generated using luciferase-labeled cell lines from the CRISPR^frameshift-loss and CRISPR^neutral#1 cells containing TR-shSF3B1#3. Animals were placed on doxycycline upon detection of palpable tumors. CRISPR^frameshift-loss and CRISPR^neutral#1 cells generated tumors of similar volume in the absence of doxycycline (FIG. 34; p=0.7, repeated measures ANOVA).\nAll animal husbandry was done with the approval of the Dana-Farber Cancer Institute IACUC. 1×10^6 CRISPR^neutral#1 or CRISPR^frameshift-loss cells expressing TR-shSF3B1 #3 were subcutaneously injected into opposing flanks of nude mice (Foxn1 nu/nu, Harlan). Animals were randomized to control group or doxycycline treatment after detection of a palpable tumor on either flank. Mice in the doxycycline treatment arm were continuously fed a doxycycline diet (2,000 ppm). Mice were sacrificed at the end of the experiment, or when endpoints were reached based on failure to thrive according to IACUC recommendation. […]\nA custom image analysis pipeline was used to systematically quantify Ki67+ cells from tumor xenografts using CellProfilier. A minimum of 3 tumors per group, totaling at least 2,440 nuclei per tumor, was used to quantify the ratio of Ki67+ cells. At least 5 individual and random microscopic images from each tumor were analyzed."}, "[4]": {"tested_on": "SF3B1^loss HCC1954 xenografts", "test": "Growth of established xenograft tumors without or with doxycycline", "type": "in vivo", "settings": "with doxycycline vs without", "from_the_text": "FIG. 36B is a graph showing growth of established tumors for HCC1954 xenografts without doxycycline (“−Dox”, n=13) or with doxycycline (“+Dox”, n=12) using TR-shSF3B1 #3. ***p≤0.001.\nas §1"}, "[5]": {"tested_on": "SF3B1^neutral Cal51 xenografts", "test": "Growth of established xenograft tumors without or with doxycycline", "type": "in vivo", "settings": "with doxycycline vs without", "from_the_text": "FIG. 36A is a graph showing growth of established tumors for Cal51 xenografts without doxycycline (“−Dox”, n=13) or with doxycycline (“+Dox”, n=12) using TR-shSF3B1 #3.\nas §1"}}, "data": [{"molecule": "CO[C@]1(C)C[C@@]2(CO2)[C@H](O)[C@@H](/C=C/C(C)=C/C[C@@H]2O[C@H](C)[C@H](NC(=O)/C=C\\[C@H](C)OC(C)=O)C[C@@H]2C)O1", "note": "[Spliceostatin A]", "values": [{"measurement": "cell death", "setting": "[1]; Hs578T breast cancer cells, when suppression of SF3B1 expression is induced", "result": "increased cell death"}]}, {"molecule": "O=C1c2ccccc2C(=O)c2oc(-c3cccnc3)nc21", "note": "[SJB3-019A]", "values": [{"measurement": "SF3B1 expression", "setting": "[2]", "result": "significant decrease"}]}, {"molecule": "N#CSc1cc(SC#N)c(N)nc1N", "note": "[PR-619]", "values": [{"measurement": "SF3B1 expression", "setting": "[2]", "result": "significant decrease"}]}, {"molecule": "O=C1C(SCCO)=C(SCCO)C(=O)c2ccccc21", "note": "[NSC95397]", "values": [{"measurement": "increased effects on cells with SF3B1 copy-loss or suppression", "setting": "[1]; cells with SF3B1 copy-loss or suppression", "result": "failed to exhibit increased effects"}]}, {"molecule": "C=CC(=O)N1C/C(=C\\c2ccc([N+](=O)[O-])cc2)C(=O)/C(=C/c2ccc([N+](=O)[O-])cc2)C1", "note": "[b-AP15]", "values": [{"measurement": "SF3B1 expression", "setting": "[2]", "result": "significant decrease"}]}, {"molecule": "B1", "values": [{"measurement": "number of proliferative Ki67+ cells", "setting": "[3]; Ki67 immunohistochemistry", "result": "reduced"}, {"measurement": "growth of tumor", "setting": "[3]; luminescent quantification", "result": "reduced the growth of tumor"}, {"measurement": "tumor growth", "setting": "[4]", "result": "reduced tumor growth was observed"}, {"measurement": "tumor growth", "setting": "[5]", "result": "not in SF3B1^neutral Cal51 xenografts"}]}]}
